# Columns and labels:
# Barnyardgrass [1] = test: Test C postemergence: barnyardgrass; type: in vivo, Echinochloa crus-galli
# From the text: (§1) At the same time, plants selected from these crop and weed species and also barley (winter barley, Hordeum vulgare), canarygrass (Phalaris minor), chickweed (common chickweed, Stellaria media) windgrass (Apera spica-venti) and deadnettle (henbit deadnettle, Lamium amplexicaule) were planted in pots containing Redi-Earth® planting medium (Scotts Company, 14111 Scottslawn Road, Marysville, Ohio 43041) comprising spaghnum peat moss, vermiculite, wetting agent and starter nutrients and treated with postemergence applications of test chemicals formulated in the same manner. Plants ranged in height from 2 to 18 cm (1- to 4-leaf stage) for postemergence treatments.
# (§2) Treated plants and controls were maintained in a greenhouse for 13 to 15 days, after which time all species were compared to controls and visually evaluated. Plant response ratings, summarized in Table C, are based on a scale of 0 to 100 where 0 is no effect and 100 is complete control. A dash (-) response means no test result.
# Barnyardgrass [2] = test: Test C postemergence: barnyardgrass; type: in vivo, Echinochloa crus-galli; conditions: 125 g ai/ha, scale 0 to 100, 0 no effect, 100 complete control
# From the text: (§3) Seeds of plant species selected from blackgrass (Alopecurus myosuroides), bromegrass, downy (downy bromegrass, Bromus tectorum), foxtail, green (green foxtail, Setaria viridis), ryegrass, Italian (Italian ryegrass, Lolium multiflorum), winter wheat (Triticum aestivum), wild oat (Avena fatua), galium (catchweed bedstraw, Galium aparine), bermudagrass (Cynodon dactylon), surinam grass (Brachiaria decumbens), cocklebur (common cocklebur, Xanthium strumarium), corn (Zea mays), large crabgrass (Digitaria sanguinalis), woolly cupgrass (Eriochloa villosa), foxtail, giant (giant foxtail, Setaria faberii), goosegrass (Eleusine indica), johnsongrass (Sorghum halepense), kochia (Kochia scoparia), lambsquarters (Chenopodium album), morningglory (Ipomoea coccinea), nightshade (eastern black nightshade, Solanum ptycanthum), nutsedge, yellow (yellow nutsedge, Cyperus esculentus), pigweed (Amaranthus retroflexus), ragweed (common ragweed, Ambrosia elation), soybean (Glycine max), common (oilseed) sunflower (Helianthus annuus), Russian thistle (Salsola kali) and velvetleaf (Abutilon theophrasti) were planted into a blend of loam soil and sand and treated preemergence with test chemicals formulated in a non-phytotoxic solvent mixture which included a surfactant.
# as §1, §2
# Oilseed Rape [3] = test: Test C postemergence: oilseed rape; type: in vivo
# From the text: as §1, §2
# Waterhemp [4] = test: Test C postemergence: waterhemp; type: in vivo
# From the text: as §1, §2
# Waterhemp [5] = test: Test C postemergence: waterhemp; type: in vivo, Amaranthus rudis; conditions: 125 g ai/ha, scale 0 to 100, 0 no effect, 100 complete control
# From the text: as §3, §1, §2
# [6] = test system: barnyardgrass (Echinochloa crus-galli); test: Test C pre-/postemergence: barnyardgrass; type: in vivo; conditions: Preemergence, 250 g ai/ha; scale 0 to 100, 0 no effect, 100 complete control
# From the text: as §3, §1, §2
# Oilseed Rape [7] = test: Test C pre-/postemergence: oilseed rape; type: in vivo; conditions: Preemergence, 250 g ai/ha; scale 0 to 100, 0 no effect, 100 complete control
# From the text: as §3, §1, §2
# Oilseed Rape [8] = test: Test C preemergence: oilseed rape; type: in vivo, Brassica napus; conditions: 125 g ai/ha, scale 0 to 100, 0 no effect, 100 complete control
# Oilseed Rape [9] = test: Test C preemergence: oilseed rape; type: in vivo; conditions: scale of 0 to 100, 0 is no effect, 100 is complete control
# From the text: as §3, §2
# [10] = 31 g ai/ha, scale 0 to 100 (0 no effect, 100 complete control)
# [11] = 62 g ai/ha, scale 0 to 100 (0 no effect, 100 complete control)
Compound,"Plant response rating, Barnyardgrass (Barnyardgrass [1]; [10])","Plant response rating, Barnyardgrass (Barnyardgrass [1]; [11])","Plant response rating, Barnyardgrass (Barnyardgrass [1]; 250 g ai/ha, scale 0 to 100)","Plant response rating, Barnyardgrass (Barnyardgrass [2])","Plant response rating, Oilseed Rape (Oilseed Rape [3]; [10])","Plant response rating, Oilseed Rape (Oilseed Rape [3]; [11])","Plant response rating, Oilseed Rape (Oilseed Rape [3]; 250 g ai/ha, scale 0 to 100)","Plant response rating, Waterhemp (Waterhemp [4]; [10])","Plant response rating, Waterhemp (Waterhemp [4]; [11])","Plant response rating, Waterhemp (Waterhemp [4]; 250 g ai/ha, scale 0 to 100)","Plant response rating, Waterhemp (Waterhemp [5])","Plant response rating, Barnyardgrass [6]","Plant response rating, Oilseed Rape (Oilseed Rape [7])","Plant response rating, Oilseed Rape (Oilseed Rape [8])","Plant response rating, Oilseed Rape (Oilseed Rape [9]; 31 g ai/ha)","Plant response rating, Oilseed Rape (Oilseed Rape [9]; 62 g ai/ha)"
CCc1nn(-c2ccc(F)cc2)nc1Cc1ccnc(C(F)(F)F)c1 [Compound 154],15,25,40,25,80,90,95,90,98,98,98,100,100,90,5,90
CCc1nn(-c2ccc(C(F)(F)F)cc2)nc1Cc1ccnc(C(F)(F)F)c1 [Compound 155],25,35,75,55,90,90,95,98,98,98,98,100,100,90,50,90
Cc1nn(-c2ccc(F)c(C(F)(F)F)c2)nc1Cc1ccnc(C(F)(F)F)c1 [Compound 156],20,30,55,40,80,90,95,98,98,98,98,100,98,90,10,60

# From patent US9302999B2, “Substituted triazoles as herbicides” (E. I. DU PONT DE NEMOURS AND COMPANY, priority 2012, dated 2016)
